Patent publication US12454687B2, “Functional genomics using CRISPR-Cas systems, compositions, methods, knock out libraries and applications thereof” (The Broad Institute, Inc., priority 2012, dated 2025)

Key:
[1] = test system: Exon 51 of the dystrophin gene; conditions: across 48 weeks, cited from earlier work
human EMX1 locus [2] = assay: double nicking SURVEYOR assay, Cas9 nickase with pairs of guide RNAs, HEK293FT cells; format: cell-based; conditions: sgRNA pairs generating 5′ and 3′ overhangs, offset range from −278 to +58 bp
Procedure: Applicants transfected cells using Lipofectamine 2000, and transfected cells were harvested 48 or 72 hours after transfections. Double nicking-induced NHEJ were detected using the SURVEYOR nuclease assay as described previously herein (FIGS. 51, 52 and 53).

EMX1 locus = assay: HDR with ssODNs and targeting vector in HUES9 cells; format: cell-based, human
Description: (a) Either a targeting plasmid or an ssODN (sense or antisense) with homology arms can be used to edit the sequence at a target genomic locus cleaved by Cas9 (red triangle). To assay the efficiency of HDR, we introduced a HindIII site into the target locus, which was PCR-amplified with primers that anneal outside of the region of homology. […] (b) ssODNs, oriented in either the sense or the antisense (s or a) direction relative to the locus of interest, can be used in combination with Cas9 to achieve efficient HDR-mediated editing at the target locus. A minimal homology region of 40 bp, and preferably 90 bp, is recommended on either side of the modification. […] Each ssODN contains homology arms of 90 bp flanking a 12-bp insertion of two restriction sites.
114| In the HDR example, a HindIII restriction site is inserted into the EMX1 gene. These are detected by a restriction digest of the PCR amplicon:
iv. The cleavage products are imaged and quantified as described above in the SURVEYOR assay section. HDR efficiency is estimated by the formula: (b+c)/(a+b+c), where a is the integrated intensity for the undigested HDR PCR product, and b and c are the integrated intensities for the HindIII-cut fragments.
CRISPR-Cas may be easily multiplexed to facilitate simultaneous modification of several genes and mediate chromosomal microdeletions at high efficiencies. […]

human EMX1 locus [3] = assay: Surveyor assay for genome modification, HEK 293 FT cells; format: cell-based; conditions: co-expression with EMX1-targeting chimeric crRNA, n=3
Procedure: Cells were transfected using Lipofectamine 2000 (Life Technologies) following the manufacturer's recommended protocol. For each well of a 24-well plate a total of 800 ng of plasmids were used.
Genomic DNA was extracted using the QuickExtract DNA extraction kit (Epicentre) following the manufacturer's protocol. […] Extracted genomic DNA was immediately processed or stored at −20° C.
The genomic region surrounding a CRISPR target site for each gene was PCR amplified, and products were purified using QiaQuick Spin Column (Qiagen) following manufacturer's protocol. A total of 400 ng of the purified PCR products were mixed with 2 μl 10× Taq polymerase PCR buffer (Enzymatics) and ultrapure water to a final volume of 20 μl, and subjected to a re-annealing process to enable heteroduplex formation: 95° C. for 10 min, 95° C. to 85° C. ramping at −2° C./s, 85° C. to 25° C. at −0.25° C./s, and 25° C. hold for 1 minute. After re-annealing, products were treated with Surveyor nuclease and Surveyor enhancer S (Transgenomics) following the manufacturer's recommended protocol, and analyzed on 4-20% Novex TBE poly-acrylamide gels (Life Technologies). Gels were stained with SYBR Gold DNA stain (Life Technologies) for 30 minutes and imaged with a Gel Doc gel imaging system (Bio-rad). Quantification was based on relative band intensities, as a measure of the fraction of cleaved DNA.

human EMX1 locus [4] = assay: restriction fragment length polymorphism assay for homologous recombination; format: cell-based; conditions: HEK 293 FT, HindIII digest
Description: The target genomic region was PCR amplified using primers outside the homology arms of the homologous recombination (HR) template. PCR products were separated on a 1% agarose gel and extracted with MinElute GelExtraction Kit (Qiagen). Purified products were digested with HindIII (Fermentas) and analyzed on a 6% Novex TBE poly-acrylamide gel (Life Technologies).

human EMX1 locus [5] = assay: sequencing of amplicons containing the target locus; format: cell-based; conditions: sequencing of 327 amplicons

eteplirsen
functional benefit [1]: significant functional benefit | dystrophin positive fibers ([1]; average, compared to baseline): 47%

H840A: SpCas9 with mutation H840A
indel formation with sgRNA pairs (human EMX1 locus [2]): unable to observe indel formation

SpCas9n: SpCas9 with aspartate-to-alanine substitution (D10A) in the RuvC I catalytic domain, a nickase
HDR detection (EMX1 locus): not been able to detect HDR | indels at the EMX1 protospacer target (human EMX1 locus [3]): does not generate indels | integration of the HR template into the EMX1 locus (human EMX1 locus [4]): catalyzed integration of the HR template | indels detected by sequencing (human EMX1 locus [5]): did not detect any indels
